Assay results from PubChem BioAssay (NCI).
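Test compounds were applied to cells in 96-well plates for 48 hours at 5 doses. Definition used: TGI = concentration required for complete inhibition of growth.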

How the values were obtained:
Assay in all cases: inhibition of tumour cell growth, NCI panel, 48 h
SF-295 CNS = tested on: SF-295 CNS
RPMI-8226 leukemia = tested on: RPMI-8226 leukemia
M14 melanoma = tested on: M14 melanoma
OVCAR-8 ovarian = tested on: OVCAR-8 ovarian
SK-MEL-28 melanoma = tested on: SK-MEL-28 melanoma
HCT-116 colon = tested on: HCT-116 colon
SNB-75 CNS = tested on: SNB-75 CNS
K-562 leukemia = tested on: K-562 leukemia
NCI-H460 lung = tested on: NCI-H460 lung

Row | Structure (SMILES) | TGI (SF-295 CNS) [µM] | TGI (RPMI-8226 leukemia) [µM] | TGI (M14 melanoma) [µM] | TGI (OVCAR-8 ovarian) [µM] | TGI (SK-MEL-28 melanoma) [µM] | TGI (HCT-116 colon) [µM] | TGI (SNB-75 CNS) [µM] | TGI (K-562 leukemia) [µM] | TGI (NCI-H460 lung) [µM]
1 | CNC(=O)OCc1nc(S(C)=O)n(C)c1COC(=O)NC (stereo not given) | > 100 | > 100 | > 48.3 | > 100 | > 100 | > 100 | > 100 | > 100 | > 100
2 | CC1CC(=O)C(C(O)CC2CC(=O)N(c3ccccc3)C(=O)C2)C(C)C1 (stereo not given) | > 100 | > 100 | > 100 | > 100 | > 100 | > 100 | > 100 | > 100 | > 100
3 | COCCN1C2=CCCCC2=Nc2c(N)nc(N)nc21 | > 100 | > 100 | > 100 | > 100 | > 100 | > 100 | > 100 | > 100 | > 100
4 | COc1cc2c(cc1OC)-c1c(cc(OC)c(OC)c1OC)C2=O | > 100 | > 100 | > 100 | > 100 | > 100 | > 100 | 95.5 | > 100 | > 100
5 | Cc1ccccc1NC(=O)C(=O)Cc1nc2ccccc2s1 | > 100 |  | > 100 | > 100 | > 100 | > 100 | > 100 | > 100 | > 100
6 | CC(C)OCN1COCN=C1NC#N | > 100 |  | > 100 | > 100 | > 100 | > 100 | > 100 | > 100 | > 100
7 | COc1ccc(C(=O)C(C(=O)C(=O)Nc2nc3ccc(OC)cc3s2)c2ccc(OC)cc2)cc1 (stereo not given) | > 100 | > 100 | > 100 | > 100 | > 100 |  | > 100 | > 100 | > 100
8 | COC1OC(C)C(OC(=O)C(C)(C)C)C(C)(O)C1O (stereo not given) | > 100 | > 100 | > 100 | > 100 | > 100 | > 100 |  | > 100 | > 100
9 | Oc1cccc(C2SCc3nc4ccccc4n32)c1 (stereo not given) | > 100 | > 100 |  | > 100 | > 100 | > 100 | > 100 | > 100 | > 100
10 | COC(=O)C(C(=O)C(=O)Nc1ccccc1OC)c1csc(-n2nc(-c3ccccc3)cc2-c2ccccc2)n1 (stereo not given) |  | > 100 | > 100 | > 100 |  | > 100 | 92.7 | > 100 | > 100
11 | COc1ccc(-c2c(N)[n+]([O-])c3cc(C)c(C)cc3[n+]2[O-])cc1OC | > 100 | > 100 | > 100 | > 100 | > 100 |  | > 100 | > 100 | > 100
12 | CCCCCN(CCCCC)C(=O)[C@@H](CCC(=O)OCc1ccccc1)NC(=O)c1cc2ccccc2[nH]1 | > 100 |  | > 100 | > 100 | > 100 | > 100 | > 100 | > 100 | > 100
13 | Fc1cccc(F)c1C1SCc2nc3ccccc3n21 (stereo not given) | > 100 | > 100 | > 100 | > 100 |  | > 100 | > 100 | > 100 | > 100
14 | COc1cc(C2C(C(=O)O)=C(C)Oc3cc4c(cc32)OCO4)cc(OC)c1OC (stereo not given) | 59.5 |  | > 100 | > 100 | > 100 | > 100 | 53.1 | > 100 | > 100
15 | CC(=O)O[C@H]1CCC2[C@@H]3CCC4C(=O)c5oncc5C[C@]4(C)C3CC[C@@]21C (stereo not given in full) | > 100 | > 100 | > 100 | > 100 | > 100 |  | > 100 | > 100 | > 100
16 | CC1CC2C3CC(F)C4=CC(=O)C=CC4(C)C3(F)C(O)CC2(C)C1(O)C(=O)CO (stereo not given) | > 100 | > 100 | > 100 |  | > 100 | > 100 | > 100 | > 100 | > 100
17 | COC(=O)C1CCc2c(OC)ccc(OC)c2C1=O (stereo not given) | > 100 | > 100 | > 100 | > 100 | > 100 | > 100 |  | > 100 | > 100
18 | COc1ccc(OC)c(CCc2cc(OC)c(OC)cc2C)c1 | 47.2 | 90.1 | > 100 | > 100 | > 100 |  | > 100 | > 100 | > 100
19 | CSc1s[s+]c(SC)c1[O-] | > 100 |  | 75.8 | 43.7 | 34.2 | 36.8 | > 100 | 25.2 | > 100
20 | Cc1cccc(NC(=O)CC2C(=O)Nc3ccccc3S2(=O)=O)c1C (stereo not given) | > 100 |  | > 100 | 44.4 | > 100 | 33.1 | 41.6 | > 100 | 82.4
21 | CC1=CCC2(C#N)CCC1C2=O (stereo not given) | > 100 | > 100 | > 100 | > 100 |  | > 100 |  | > 100 | > 100
